Source: PMC6264139, “Schiff Bases of Indoline-2,3-dione: Potential Novel Inhibitors of Mycobacterium Tuberculosis (Mtb) DNA Gyrase ^†” (Molecules, 2011)
“And” between values parts separate entries of the source, which are not always exact repeats. Identical values can stand only once.

target: Mtb DNA gyrase (Mycobacterium tuberculosis, UniProt P9WG45+P9WG47); assay: Mtb DNA gyrase supercoiling inhibition assay; type: biochemical, Mycobacterium tuberculosis strain H37RV; settings: Mtb wt gyrase IC50, supercoiling of relaxed pBR322 DNA, 60 minutes at 37 °C, inhibitor 1.56 to 200 µM
Sequence (P9WG45 whole entry): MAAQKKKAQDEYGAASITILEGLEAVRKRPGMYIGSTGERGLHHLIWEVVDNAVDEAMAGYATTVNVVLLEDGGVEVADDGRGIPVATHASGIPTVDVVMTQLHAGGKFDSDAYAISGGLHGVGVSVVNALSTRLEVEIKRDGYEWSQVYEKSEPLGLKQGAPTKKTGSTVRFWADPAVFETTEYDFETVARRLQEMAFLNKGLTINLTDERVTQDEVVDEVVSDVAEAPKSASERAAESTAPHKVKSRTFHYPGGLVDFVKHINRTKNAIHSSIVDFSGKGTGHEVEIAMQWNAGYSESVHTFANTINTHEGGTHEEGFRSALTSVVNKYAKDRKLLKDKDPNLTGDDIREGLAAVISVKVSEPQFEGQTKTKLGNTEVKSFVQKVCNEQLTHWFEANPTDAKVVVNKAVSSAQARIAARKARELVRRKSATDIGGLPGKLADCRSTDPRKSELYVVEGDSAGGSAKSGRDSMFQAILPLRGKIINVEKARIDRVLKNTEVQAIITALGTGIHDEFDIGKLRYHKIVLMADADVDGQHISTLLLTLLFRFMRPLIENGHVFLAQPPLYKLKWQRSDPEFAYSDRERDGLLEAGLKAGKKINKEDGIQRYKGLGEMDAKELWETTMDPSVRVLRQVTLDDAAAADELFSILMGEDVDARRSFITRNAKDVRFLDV
Sequence (P9WG47 whole entry): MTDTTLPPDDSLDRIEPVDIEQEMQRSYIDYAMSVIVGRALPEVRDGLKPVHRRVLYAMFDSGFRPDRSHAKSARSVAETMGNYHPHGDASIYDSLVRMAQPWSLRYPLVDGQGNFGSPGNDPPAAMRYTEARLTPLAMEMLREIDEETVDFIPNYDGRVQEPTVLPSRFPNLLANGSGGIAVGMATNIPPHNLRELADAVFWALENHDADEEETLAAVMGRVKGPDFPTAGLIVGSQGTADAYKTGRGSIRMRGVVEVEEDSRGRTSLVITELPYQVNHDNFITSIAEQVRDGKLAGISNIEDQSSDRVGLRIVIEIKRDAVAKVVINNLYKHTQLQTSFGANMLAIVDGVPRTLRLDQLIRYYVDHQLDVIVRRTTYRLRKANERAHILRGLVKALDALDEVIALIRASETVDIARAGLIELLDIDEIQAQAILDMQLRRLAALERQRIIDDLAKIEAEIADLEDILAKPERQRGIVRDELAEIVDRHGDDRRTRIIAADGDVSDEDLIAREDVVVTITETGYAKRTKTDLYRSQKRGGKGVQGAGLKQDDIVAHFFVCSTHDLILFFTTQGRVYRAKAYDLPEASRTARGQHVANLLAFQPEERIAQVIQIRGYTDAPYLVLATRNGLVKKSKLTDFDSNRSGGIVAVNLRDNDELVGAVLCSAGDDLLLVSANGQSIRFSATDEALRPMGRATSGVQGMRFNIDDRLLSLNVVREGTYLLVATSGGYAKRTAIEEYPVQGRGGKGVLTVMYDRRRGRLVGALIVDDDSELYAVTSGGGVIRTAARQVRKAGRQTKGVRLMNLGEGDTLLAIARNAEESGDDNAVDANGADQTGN
Description: Two-fold increases in inhibitor concentrations ranging from 1.56 to 200 µM were added to pBR322 relaxed DNA in the presence of Mtb DNA gyrase enzyme. Control lanes are: Lane 1, DNA with no enzyme or inhibitor and Lane 2, DNA with enzyme but no inhibitor. IC50 values were calculated by measurement of fluorescence intensity after ethidium bromide staining of the supercoiling band at the bottom of the lanes. […] (b) IC50 curves of supercoiling (SC) fluorescence data. DNA fluorescence was quantitated with an Alpha Imager 2200 Analysis System (Cell Biosciences, Santa Clara, CA, USA) and IC50 values were determined by nonlinear regression analysis with Graphpad Prism software (Graphpad Software, Inc., San Diego, CA, USA). IDV = Integrated Density Value.
The isatin Schiff bases synthesized and characterized in this report were tested for their ability to inhibit supercoiling activity of DNA gyrase. DNA gyrase is the only enzyme known so far having the ability to introduce negative supercoils in DNA. In all the species of mycobacteria, including Mtb, DNA gyrase is the sole type II topoisomerase carrying out the reactions of both gyrase and topoisomerase IV. Since the DNA gyrase from Mtb and M. smegmatis are highly similar at a functional as well as a protein sequence level and antigenic properties, Mtb strain H37RV DNA gyrase has been used for carrying out the supercoiling assays.
Relaxed pBR322 DNA (0.1 µg) was incubated with 1 unit of Mtb DNA gyrase for 60 minutes at 37 °C in the following buffer: 2 mM ATP, 4 mM DTT, 25 mM KCl, 6 mM magnesium acetate, 50 µg/mL of molecular grade BSA, 0.1 mg/mL E. coli tRNA, 2mM spermidine, 100 mM potassium glutamate and 40 mM Tris-HCL pH 7.5 (20 µL). Reactions are stopped with 0.5% SDS, 6 mM EDTA, 5.35% glycerol, and 0.013% bromophenol blue (10 µL). Reactions are then loaded onto a 1% agarose/ TBE gel to separate supercoiled and relaxed DNA forms and run overnight at 22 volts. Bands are visualized by staining with 0.5 µg/mL EtBr in 1 × TBE for 40 minutes then washing with dH2O for 120 minutes. Quantification is done on the AlphaImager 2200 system. DNA gyrase subunits, GyrA and GyrB, were isolated from Mtb strain H37RV genomic DNA, expressed and purified in pET overexpression constructs in E coli. One unit of DNA supercoiling activity is defined as the amount that converts ~50% relaxed DNA, in the standard assay, to supercoiled DNA in 60 minutes at 37 °C.

Row | SMILES | IC50
1 | O=C1Nc2ccccc2/C1=N/NC(=O)c1ccncc1 [Compound 3, (Z)-N'-(2-Oxoindolin-3-ylidene)isonicotinohydrazide] | > 200 µM
2 | O=C1Nc2ccc(Cl)cc2/C1=N/NC(=O)c1ccncc1 [Compound 4, (Z)-N'-(5-Chloro-2-oxoindolin-3-ylidene)isonicotinohydrazide] | > 200 µM
3 | O=C1Nc2ccc(F)cc2/C1=N/NC(=O)c1ccncc1 [Compound 5, (Z)-N'-(5-Fluoro-2-oxoindolin-3-ylidene)isonicotinohydrazide] | > 200 µM
4 | Cc1ccc2c(c1)/C(=N/NC(=O)c1ccncc1)C(=O)N2 [Compound 6, (Z)-N'-(5-Methyl-2-oxoindolin-3-ylidene)isonicotinohydrazide] | > 200 µM
5 | O=C1Nc2ccc(OC(F)(F)F)cc2/C1=N/NC(=O)c1ccncc1 [Compound 7, (Z)-N'-(2-Oxo-5-(trifluoromethoxy)indolin-3-ylidene)isonicotinohydrazide] | > 200 µM
6 | O=C1Nc2ccc([N+](=O)[O-])cc2/C1=N/NC(=O)c1ccncc1 [Compound 8, (Z)-N'-(5-Nitro-2-oxoindolin-3-ylidene)isonicotinohydrazide] | 157 µM
7 | O=C(N/N=C1\C(=O)N(c2ccccc2)c2ccccc21)c1ccncc1 [Compound 9, (Z)-N'-(2-Oxo-1-phenylindolin-3-ylidene)isonicotinohydrazide] | > 200 µM
8 | O=C(N/N=C1\C(=O)N(Cc2ccccc2)c2ccccc21)c1ccncc1 [Compound 10, (Z)-N'-(1-Benzyl-2-oxoindolin-3-ylidene)isonicotinohydrazide] | > 200 µM
9 | O=C(N/N=C1\C(=O)N(Cc2ccccc2)c2ccc(Cl)cc21)c1ccncc1 [Compound 11, (Z)-N'-(1-Benzyl-5-chloro-2-oxoindolin-3-ylidene)isonicotinohydrazide] | > 200 µM
10 | O=C(N/N=C1\C(=O)N(Cc2ccccc2)c2ccc(F)cc21)c1ccncc1 [Compound 12, (Z)-N'-(1-Benzyl-5-fluoro-2-oxoindolin-3-ylidene)isonicotinohydrazide] | > 200 µM
11 | Cc1ccc2c(c1)/C(=N/NC(=O)c1ccncc1)C(=O)N2Cc1ccccc1 [Compound 13, (Z)-N'-(1-Benzyl-5-methyl-2-oxoindolin-3-ylidene)isonicotinohydrazide] | > 200 µM
12 | O=C1Nc2ccccc2/C1=N/NC(=O)c1cccnc1 [Compound 14, (Z)-N'-(2-Oxoindolin-3-ylidene)nicotinohydrazide] | > 200 µM
13 | O=C1Nc2ccc(F)cc2/C1=N/NC(=O)c1ccco1 [Compound 15, (Z)-N'-(5-Fluoro-2-oxoindolin-3-ylidene)furan-2-carbhydrazide] | > 200 µM
14 | O=C1Nc2ccccc2/C1=N/NC(=O)c1ccc([N+](=O)[O-])o1 [Compound 16, (Z)-5-Nitro-N'-(2-Oxoindolin-3-ylidene)furan-2-carbohydrazide] | > 200 µM
15 | O=C1Nc2ccc(Cl)cc2/C1=N/NC(=O)c1cc2ccccc2o1 [Compound 17, (Z)-N'-(5-Chloro-2-oxoindolin-3-ylidene)benzofuran-2-carbohydrazide] | > 200 µM and 294 µM
16 | Cc1ccc2c(c1)/C(=N/NC(=O)c1cc3ccccc3o1)C(=O)N2 [Compound 18, (Z)-N'-(5-Methyl-2-oxoindolin-3-ylidene)benzofuran-2-carbohydrazide] | ~50 µM and 56.3 µM
17 | O=C1Nc2ccc([N+](=O)[O-])cc2/C1=N/NC(=O)c1cc2ccccc2o1 [Compound 19, (Z)-N'-(5-Nitro-2-oxoindolin-3-ylidene)benzofuran-2-carbohydrazide] | 89.9 µM
18 | O=C(N/N=C1\C(=O)N(c2ccccc2)c2ccccc21)c1cc2ccccc2o1 [Compound 20, (Z)-N'-(2-Oxo-1-phenylindolin-3-ylidene)benzofuran-2-carbohydrazide] | > 200 µM
19 | O=C1Nc2ccc(F)cc2/C1=N/NC(=O)c1cc2cc([N+](=O)[O-])ccc2o1 [Compound 21, (Z)-N'-(5-Fluoro-2-oxoindolin-3-ylidene)-5-nitrobenzofuran-2-carbhydrazide] | > 200 µM
20 | Cc1cccc(Nc2ccccc2C(=O)N/N=C2\C(=O)N(Cc3ccccc3)c3ccccc32)c1C [Compound 23, (Z)-N'-(1-Benzyl-2-oxoindolin-3-ylidene)-2-(2,3-dimethylphenylamino)benzohydrazide] | > 200 µM
21 | Cc1ccc2c(c1)/C(=N/NC(=O)c1ccccc1Nc1c(Cl)ccc(C)c1Cl)C(=O)N2 [Compound 24, (Z)-2-(2,6-Dichloro-3-methylphenylamino)-N'-(5-methyl-2-oxoindolin-3-ylidene)-benzohydrazide] | > 200 µM
22 | O=C1Nc2ccc(OC(F)(F)F)cc2/C1=N/NC(=O)c1ccccc1Nc1cccc(C(F)(F)F)c1 [Compound 25, (Z)-N'-(2-Oxo-5-(trifluoromethoxy)indolin-3-ylidene)-2-(3-(trifluoromethyl)phenylamino)-benzo-hydrazide] | > 200 µM
23 | CCn1cc(C(=O)N/N=C2\C(=O)Nc3ccc(F)cc32)c(=O)c2ccc(C)nc21 [Compound 26, (Z)-1-Ethyl-N'-(5-fluoro-2-oxoindolin-3-ylidene)-7-methyl-4-oxo-1,4-dihydro-1,8-naphthyridine-3-carbohydrazide] | > 200 µM

same assay, conditions: supercoiling of relaxed pBR322 DNA, 60 minutes at 37 °C, inhibitor 1.56 to 200 µM; read-out: Mtb wt gyrase IC50

Row | SMILES | IC50
24 | O=C1/C(=N\NC(=O)C23CC4CC(CC(C4)C2)C3)c2ccccc2N1c1ccccc1 [Compound 22, (Z)-N'-(2-oxo-1-phenylindolin-3-ylidene)adamantane-1-carbohydrazide] | > 200 µM
